Experimental data taken from patent US9102638B2, “Amidobenzothiazoles and process for the preparation thereof” (COUNCIL OF SCIENTIFIC & INDUSTRIAL RESEARCH, priority 2011, dated 2015).

What was measured:
Type in all cases: cell-based
NCI-H23 = assay: In vitro cytotoxicity, NCI screen: NCI-H23 (Non-small cell lung); settings: Homo sapiens; NCI-H23, Non-small cell lung panel, NCI protocol; read-out: GI50 values (μM conc.)
Method: (§1) The in vitro anticancer activity studies for these amidobenzothiazoles were carried out at the National Cancer Institute, Maryland, USA.
(§2) The amidobenzothiazoles have been tested against sixty human tumor cell lines derived from nine cancer types (leukemia cancer cell line, non-small cell lung cancer cell line, colon cancer cell line, CNS cancer cell line, melanoma cancer cell line, ovarian cancer cell line, renal cancer cell line, prostate cancer cell line and breast cancer cell lines). For these compounds results are expressed in GI50 values of that particular cancer cell at micro molar (μM) concentration as per NCI protocol.

CCRF-CEM = assay: In vitro cytotoxicity, NCI sixty cell line screen: CCRF-CEM (Leukemia); settings: Homo sapiens, Leukemia panel, NCI protocol, read-out: GI50 values (μM conc.)
Method: as §1, §2

MDA-MB-231/ATCC = assay: In vitro cytotoxicity, NCI screen: MDA-MB-231/ATCC (Breast); settings: Homo sapiens, Breast panel, NCI protocol, read-out: GI50 values (μM conc.)
Method: as §1, §2

ACHN = assay: In vitro cytotoxicity, NCI screen: ACHN (Renal); settings: Homo sapiens, Renal panel, NCI protocol, read-out: GI50 values (μM conc.)
Method: as §1, §2

HCC-2998 = assay: In vitro cytotoxicity, NCI screen: HCC-2998 (Colon); settings: Homo sapiens; HCC-2998, Colon panel, NCI protocol; read-out: GI50 values (μM conc.)
Method: as §1, §2

MCF7 = assay: In vitro cytotoxicity, NCI screen: MCF7 (Breast); settings: Homo sapiens; MCF7, Breast panel, NCI protocol; read-out: GI50 values (μM conc.)
Method: as §1, §2

MALME-3M = assay: In vitro cytotoxicity, NCI screen: MALME-3M (Melanoma); settings: Homo sapiens, Melanoma panel, NCI protocol, read-out: GI50 values (μM conc.)
Method: as §1, §2

MDA-MB-468 = assay: In vitro cytotoxicity, NCI screen: MDA-MB-468 (Breast); settings: Homo sapiens, read-out: GI50 values (μM conc.)
Method: as §1, §2

SF-295 = assay: In vitro cytotoxicity, NCI screen: SF-295 (CNS); settings: Homo sapiens; SF-295, CNS panel, NCI protocol; read-out: GI50 values (μM conc.)
Method: as §1, §2

BT-549 = assay: In vitro cytotoxicity, NCI screen: BT-549 (Breast); settings: Homo sapiens, read-out: GI50 values (μM conc.)
Method: as §1, §2

HS 578T = assay: In vitro cytotoxicity, NCI screen: HS 578T (Breast); settings: Homo sapiens, read-out: GI50 values (μM conc.)
Method: as §1, §2

HOP-62 = assay: In vitro cytotoxicity, NCI screen: HOP-62 (Non-small cell lung); settings: Homo sapiens; HOP-62, Non-small cell lung panel, NCI protocol; read-out: GI50 values (μM conc.)
Method: as §1, §2

HCT-116 = assay: In vitro cytotoxicity, NCI screen: HCT-116 (Colon); settings: Homo sapiens, read-out: GI50 values (μM conc.)
Method: as §1, §2

IGROV1 = assay: In vitro cytotoxicity, NCI screen: IGROV1 (Ovarian); settings: Homo sapiens, IGROV-1; IGROV1, Ovarian panel, NCI protocol; read-out: GI50 values (μM conc.)
Method: as §1, §2

[1] = system: leukemia cancer cell lines; assay: In vitro activity against leukemia cancer cell lines (panel range); settings: Homo sapiens, read-out: GI50 values, range over the listed compounds and the panel
Method: as §1, §2

SK-MEL-2 = assay: In vitro cytotoxicity, NCI screen: SK-MEL-2 (Melanoma); settings: Homo sapiens; SK-MEL-2, Melanoma panel, NCI protocol; read-out: GI50 values (μM conc.)
Method: as §1, §2

MDA-MB-435 = assay: In vitro cytotoxicity, NCI screen: MDA-MB-435 (Melanoma); settings: Homo sapiens; MDA-MB-435, Melanoma panel, NCI protocol; read-out: GI50 values (μM conc.)
Method: as §1, §2

A549/ATCC = assay: In vitro cytotoxicity, NCI screen: A549/ATCC (Non-small cell lung); settings: Homo sapiens, Non-small cell lung panel, NCI protocol, read-out: GI50 values (μM conc.)
Method: as §1, §2

LOX IMVI = assay: In vitro cytotoxicity, NCI screen: LOX IMVI (Melanoma); settings: Homo sapiens, Melanoma panel, NCI protocol, read-out: GI50 values (μM conc.)
Method: as §1, §2

DU-145 = assay: In vitro cytotoxicity, NCI screen: DU-145 (Prostate); settings: Homo sapiens, read-out: GI50 values (μM conc.)
Method: as §1, §2

HCT-15 = assay: In vitro cytotoxicity, NCI screen: HCT-15 (Colon); settings: Homo sapiens; HCT-15, Colon panel, NCI protocol; read-out: GI50 values (μM conc.)
Method: as §1, §2

SR = assay: In vitro cytotoxicity, NCI screen: SR (Leukemia); settings: Homo sapiens, Leukemia panel, NCI protocol, read-out: GI50 values (μM conc.)
Method: as §1, §2

OVCAR-4 = assay: In vitro cytotoxicity, NCI screen: OVCAR-4 (Ovarian); settings: Homo sapiens; OVCAR-4, Ovarian panel, NCI protocol; read-out: GI50 values (μM conc.)
Method: as §1, §2

[2] = system: prostate cancer cell lines; assay: In vitro activity against prostate cancer cell lines (panel range); settings: Homo sapiens, read-out: GI50 values, range over the listed compounds and the panel
Method: as §1, §2

OVCAR-8 = assay: In vitro cytotoxicity, NCI screen: OVCAR-8 (Ovarian); settings: Homo sapiens; OVCAR-8, Ovarian panel, NCI protocol; read-out: GI50 values (μM conc.)
Method: as §1, §2

SNB-19 = assay: In vitro cytotoxicity, NCI screen: SNB-19 (CNS); settings: Homo sapiens; SNB-19, CNS panel, NCI protocol; read-out: GI50 values (μM conc.)
Method: as §1, §2

A498 = assay: In vitro cytotoxicity, NCI screen: A498 (Renal); settings: Homo sapiens; A498, Renal panel, NCI protocol; read-out: GI50 values (μM conc.)
Method: as §1, §2

M14 = assay: In vitro cytotoxicity, NCI screen: M14 (Melanoma); settings: Homo sapiens; M14, Melanoma panel, NCI protocol; read-out: GI50 values (μM conc.)
Method: as §1, §2

NCI-H522 = assay: In vitro cytotoxicity, NCI screen: NCI-H522 (Non-small cell lung); settings: Homo sapiens; NCI-H522, Non-small cell lung panel, NCI protocol; read-out: GI50 values (μM conc.)
Method: as §1, §2

KM12 = assay: In vitro cytotoxicity, NCI screen: KM12 (Colon); settings: Homo sapiens; KM12, Colon panel, NCI protocol; read-out: GI50 values (μM conc.)
Method: as §1, §2

SN12C = assay: In vitro cytotoxicity, NCI screen: SN12C (Renal); settings: Homo sapiens, Renal panel, NCI protocol, read-out: GI50 values (μM conc.)
Method: as §1, §2

UACC-62 = assay: In vitro cytotoxicity, NCI screen: UACC-62 (Melanoma); settings: Homo sapiens; UACC-62, Melanoma panel, NCI protocol; read-out: GI50 values (μM conc.)
Method: as §1, §2

MOLT-4 = assay: In vitro cytotoxicity, NCI screen: MOLT-4 (Leukemia); settings: Homo sapiens; MOLT-4, Leukemia panel, NCI protocol; read-out: GI50 values (μM conc.)
Method: as §1, §2

NCI-H460 = assay: In vitro cytotoxicity, NCI screen: NCI-H460 (Non-small cell lung); settings: Homo sapiens; NCI-H460, Non-small cell lung panel, NCI protocol; read-out: GI50 values (μM conc.)
Method: as §1, §2

| SMILES | GI50 (NCI-H23) | GI50 (CCRF-CEM) | GI50 (MDA-MB-231/ATCC) | GI50 (ACHN) | GI50 (HCC-2998) | GI50 (MCF7) | GI50 (MALME-3M) | GI50 (MDA-MB-468) | GI50 (SF-295) | GI50 (BT-549) | GI50 (HS 578T) | GI50 (HOP-62) | GI50 (HCT-116) | GI50 (IGROV1) | GI50 [1] | GI50 (SK-MEL-2) | GI50 (MDA-MB-435) | GI50 (A549/ATCC) | GI50 (LOX IMVI) | GI50 (DU-145) | further results |
| --- | --- | --- | --- | --- | --- | --- | --- | --- | --- | --- | --- | --- | --- | --- | --- | --- | --- | --- | --- | --- | --- |
| COc1ccc(/C=C\c2cc(OC)c(OC)c(OC)c2)cc1OCC(=O)Nc1nc2ccc(F)cc2s1 [Compound 8e, N1-(6-fluoro-1,3-benzothiazol-2-yl)-2-{2-methoxy-5-[(Z)-2-(3,4,5-trimethoxyphenyl)-1-ethenyl]phenoxy}acetamide] | 4.26 µM | 3.7 µM | 9.34 µM | 3.33 µM | > 100 µM | 2.3 µM | 5.22 µM | 3.68 µM | 4.29 µM | 16.7 µM | > 100 µM | 5.7 µM | 4.48 µM | 4.17 µM | 0.037 to 29.9 µM | 8.46 µM | 0.33 µM | 5.99 µM | 3.23 µM | 8.97 µM | GI50 (HCT-15): 8.19 µM; GI50 (SR): 2.19 µM; GI50 (OVCAR-4): 7.3 µM; GI50 [2]: 0.18 to 22.9 µM; GI50 (OVCAR-8): 7.15 µM; GI50 (SNB-19): > 100 µM; GI50 (A498): 6.25 µM; GI50 (M14): 6.82 µM; GI50 (NCI-H522): 2.92 µM; GI50 (KM12): 4.78 µM; GI50 (SN12C): 4.61 µM; GI50 (UACC-62): 4.05 µM; GI50 (MOLT-4): 3.07 µM; GI50 (NCI-H460): 4.36 µM |
| COc1ccc(/C=C/C(=O)c2cc(OC)c(OC)c(OC)c2)cc1OCC(=O)Nc1nc2ccc(OC(F)(F)F)cc2s1 [Compound 9j, N1-(6-(trifluoromethoxy)-1,3-benzothiazol-2-yl)-2-{2-methoxy-5-[(E)-3-oxo-3-(3,4,5-trimethoxyphenyl)-1-propenyl]phenoxy}acetamide] | 2.15 µM | 2.5 µM | 2.01 µM | 1.62 µM | 6.18 µM | 1.32 µM | 2.69 µM | 3.52 µM | 2.21 µM | 2.71 µM | 3.08 µM | 2.12 µM | 1.43 µM | 2.54 µM | 0.037 to 29.9 µM | 4.97 µM | 0.3 µM | 1.99 µM | 0.47 µM | 1.56 µM | GI50 (HCT-15): 0.4 µM; GI50 (SR): 0.39 µM; GI50 (OVCAR-4): 2.07 µM; GI50 [2]: 0.18 to 22.9 µM; GI50 (OVCAR-8): 1.54 µM; GI50 (SNB-19): 1.58 µM; GI50 (A498): 7.4 µM; GI50 (M14): 1.72 µM; GI50 (NCI-H522): 0.67 µM; GI50 (KM12): 1.51 µM; GI50 (SN12C): 1.74 µM; GI50 (UACC-62): 9.52 µM; GI50 (MOLT-4): 2.89 µM; GI50 (NCI-H460): 2.43 µM |
